Calls of active or inactive are those of the source. How the calls were made is not given here.
Target: Sentrin-specific protease 8 (Homo sapiens) (UniProt Q96LD8)
Assay: potency of human SENP8 inhibitors, dose response, biochemical, Nedd8 protein substrate (AID 624322)
Details: recombinant SENP8, Nedd8 substrate cleavage inhibition

Sequence of Sentrin-specific protease 8 (Homo sapiens) (Q96LD8 whole entry, looked up): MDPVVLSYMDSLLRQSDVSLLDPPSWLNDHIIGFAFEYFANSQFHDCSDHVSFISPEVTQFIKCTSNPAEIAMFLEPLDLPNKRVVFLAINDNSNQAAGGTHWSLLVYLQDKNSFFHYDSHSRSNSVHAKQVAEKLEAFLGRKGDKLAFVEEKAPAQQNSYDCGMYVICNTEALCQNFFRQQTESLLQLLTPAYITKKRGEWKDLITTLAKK

SMILES: O=c1[nH]c2ccccc2s1
- IC50: > 100 µM (inactive)

SMILES: COc1ccc(-n2[nH]c(C)cc2=O)cc1
- IC50: > 100 µM (inactive)

SMILES: O=C(NC1C(=O)NNC1c1ccccc1)c1ccccc1 (stereo unspecified)
- IC50: > 100 µM (inactive)

SMILES: O=[N+]([O-])c1cc(F)c2cccnc2c1O
- IC50: 11.8 µM

SMILES: Cn1c(Cc2ccccc2)nnc1SCC(=O)c1cccs1
- IC50: > 100 µM (inactive)

SMILES: O=C(Nc1c(-c2ccccc2)[nH][nH]c1=O)c1cnccn1
- IC50: 42.6 µM

SMILES: O=C(O)c1ccc(Cl)c(S(=O)(=O)NCc2ccco2)c1
- IC50: > 100 µM (inactive)

SMILES: O=C(O)CCCCCCCCCCCc1ccccc1
- IC50: > 100 µM (inactive)

SMILES: Cc1ccc(S(=O)(=O)N[C@H](C(=O)N2CCC(C(=O)N[C@H](C(=O)O)c3ccccc3)CC2)C(C)C)cc1
- IC50: > 100 µM (inactive)

SMILES: COc1ccc(O)c(C(c2c(C)[nH][nH]c2=O)c2c(C)[nH][nH]c2=O)c1
- IC50: 7.17 µM

SMILES: O=C(N/N=C/c1ccc([N+](=O)[O-])o1)c1ccccc1-n1cccc1
- IC50: > 100 µM (inactive)

SMILES: O=[N+]([O-])c1ccc(N2CCN(Cc3ccccc3)CC2)c2c1no[n+]2[O-]
- IC50: 17.4 µM

SMILES: CCCn1nc([N+](=O)[O-])c(C(C#N)c2nc3ccccc3o2)c(Cl)c1=O (stereo unspecified)
- IC50: > 100 µM (inactive)

SMILES: O=C(CCc1ccccc1)c1c(O)cc(O)cc1O
- IC50: > 100 µM (inactive)

SMILES: NC(=O)c1ccc(N=Cc2ccc([N+](=O)[O-])s2)cc1
- IC50: 2.48 µM

SMILES: CC1=C(SCCC#N)S/C(=C2\SC(C)=C(SCCC#N)S2)S1
- IC50: 0.297 µM
